In patent US10736822B2, “Root canal treatment material and root canal treatment kit” (FUJIFILM Corporation, priority 2016, dated 2020):

Test: Evaluation of curability under moist environment (distilled water added, Vicat needle)
Format: physicochemical
Conditions: conclusion in words from Table 1
Method: The curability of each of the root canal treatment materials according to the examples and the comparative examples was evaluated through the following method. First, a cylindrical mold having an inner diameter of 5 mm and a height of 1 mm was filled with each of the root canal treatment materials which was then subjected to light irradiation with a light irradiator (“G-Light Prima II Plus” manufactured by GC) for 40 seconds to produce a test piece. […] A needle mark was visually checked and evaluated according to the following criteria.
The curability of each of the root canal treatment materials according to the examples and the comparative examples was evaluated in a moist environment through the following method. First, 15 μL of distilled water was added to 0.15 g of each of the root canal treatment materials which was then subjected to light irradiation with the light irradiator (“G-Light Prima II Plus” manufactured by GC) for 20 seconds to produce a test piece. The curability of each of the obtained test pieces was evaluated in the same manner as in <Evaluation of Curability> described above.

C=CC(=O)NCCCOCC(COCCCNC(=O)C=C)(COCCCNC(=O)C=C)NC(=O)C=C [compound (I)]
curability in a moist environment: particularly excellent curability in a moist environment
